Values quoted from earlier work as cited in US20180042936A1, “MAINTENANCE THERAPY USING TIANEPTINE” (GENOMIND, Inc., priority 2016, published 2018).
Where two headings read alike, the source gives them in different places.

Tests used:
[1] = some individuals with treatment-resistant major depressive disorder and bipolar disorder
[2] = tested on: brain derived neurotrophic factor (BDNF); conditions: responders compared to non-responders

CNC1(c2ccccc2Cl)CCCCC1=O (racemic) [Ketamine, (RS)-2-(2-Chlorophenyl)-2-(methylamino)cyclohexanone]
time to anti-depression efficacy [1]: ≤ 1 h | plasma BDNF levels ([2]; 240 min post-infusion (Haile et al. 2014)): significantly increased | plasma BDNF levels ([2]; post-infusion of ketamine (Example 1)): increases plasma BDNF levels
